Experimental data: patent US11566057B2, “Long-acting co-agonists of the glucagon and GLP-1 receptors” (Merck Sharp & Dohme Corp., priority 2017, dated 2023)
Like-named read-outs stand apart in the source and are kept apart here. Numbered stars: 1 amine (or outer) side, 2 acyl side, 3 side chain; on linkers, the order of the positions; unused ones are H or OH. Square brackets hold non-standard residues; d marks the D form. Side chains are listed from the residue outwards. Peptide text beside a SMILES is read from it. * marks the point of attachment. C20 diacid = O=C(O)CCCCCCCCCCCCCCCCCCC(=O)*; Phe(4-CH2NH2) = NCc1ccc(C[C@H](N)C(=O)O)cc1; C18 diacid = O=C(O)CCCCCCCCCCCCCCCCC(=O)*; C16 diacid = O=C(O)CCCCCCCCCCCCCCC(=O)*; γGlu = O=C(O)[C@H](CCC(=O)[*:2])N[*:1]; Met(O2) = CS(=O)(=O)CC[C@H](N)C(=O)O; αMeF = C[C@](N)(Cc1ccccc1)C(=O)O; AEEA = NCCOCCOCC(=O)O; Aib = CC(C)(N)C(=O)O

How the values were obtained:
human GLP1R = target: T1, human GLP1R (Homo sapiens, UniProt P43220); test: cAMP activity assay at the GLP-1 receptor (GLP1R); type: cell-based
T1 construct: expressed in transfected cells; growth medium holds Blasticidin and Hygromycin
Method in brief: (§1)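 Peptides serially diluted from DMSO (10 points) and added to frozen-stock cells bearing human GLP1R (10,000 cells/well) or GCGR (30,000 cells/well), 1 h at RT, dark. EC50 by four-parameter logistic fit of HitHunter cAMPXS luminescence, read following overnight RT incubation.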

human GCGR = target: T2, human GCGR (Homo sapiens, UniProt P47871); test: cAMP activity assay at the Glucagon receptor (GCGR); type: cell-based; details: for hGCGR/hGLP1R (hTone): ratio of GCGR EC50 to GLP1R EC50
T2 construct: expressed in transfected cells; growth medium holds Blasticidin and Hygromycin
Method in brief: as §1

[1] = cells expressing human GLP1R, cAMP production, buffer with or without 20% human serum (not stated which), read-out: GLP1R EC50 human
[2] = summary statement: EC50 at each of the glucagon and GLP-1 receptors, read-out: EC50 at the GLP-1 receptor
[3] = summary statement: EC50 at each of the glucagon and GLP-1 receptors, read-out: EC50 at the glucagon receptor
[4] = cells expressing human GCGR, cAMP production, buffer with or without 20% human serum (not stated which), read-out: GCGR EC50 human

T1 sequence (P43220 24-463): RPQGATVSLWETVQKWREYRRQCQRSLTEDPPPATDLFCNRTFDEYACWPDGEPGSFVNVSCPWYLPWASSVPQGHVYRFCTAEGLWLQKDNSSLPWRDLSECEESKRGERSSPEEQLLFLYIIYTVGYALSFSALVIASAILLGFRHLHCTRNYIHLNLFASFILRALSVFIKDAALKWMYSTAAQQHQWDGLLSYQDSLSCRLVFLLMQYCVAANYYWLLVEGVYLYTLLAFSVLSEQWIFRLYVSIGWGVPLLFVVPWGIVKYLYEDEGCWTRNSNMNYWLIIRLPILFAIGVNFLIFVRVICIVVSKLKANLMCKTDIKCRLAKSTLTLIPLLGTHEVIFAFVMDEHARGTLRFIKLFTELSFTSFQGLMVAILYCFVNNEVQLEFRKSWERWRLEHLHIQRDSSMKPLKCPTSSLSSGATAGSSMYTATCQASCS
T2 sequence (P47871 26-477): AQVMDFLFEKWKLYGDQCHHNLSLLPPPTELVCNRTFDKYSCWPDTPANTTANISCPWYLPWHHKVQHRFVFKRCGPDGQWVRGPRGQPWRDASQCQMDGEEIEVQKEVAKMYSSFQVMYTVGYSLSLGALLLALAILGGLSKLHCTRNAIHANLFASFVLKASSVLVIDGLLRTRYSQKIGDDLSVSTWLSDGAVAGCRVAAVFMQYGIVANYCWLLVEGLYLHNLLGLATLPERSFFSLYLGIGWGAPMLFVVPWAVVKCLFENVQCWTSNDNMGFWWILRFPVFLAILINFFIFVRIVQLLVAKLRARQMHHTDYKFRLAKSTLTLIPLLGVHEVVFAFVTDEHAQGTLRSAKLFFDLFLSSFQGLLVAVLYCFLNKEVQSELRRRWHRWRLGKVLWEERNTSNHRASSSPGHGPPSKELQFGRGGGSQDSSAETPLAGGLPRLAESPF

Row | Compound | EC50 (human GLP1R; [1]) [nM] | EC50 (human GLP1R; [2]) [nM] | hGCGR/hGLP1R (hTone) (human GCGR) | EC50 (human GCGR; [3]) [nM] | EC50 (human GCGR; [4]) [nM]
1 | CC(C)C[C@H](NC(=O)[C@H](Cc1ccc(O)cc1)NC(=O)[C@H](CCCCN)NC(=O)[C@H](CO)NC(=O)[C@H](Cc1ccc(O)cc1)NC(=O)[C@H](CC(=O)O)NC(=O)[C@H](CO)NC(=O)[C@@H](NC(=O)[C@H](Cc1ccccc1)NC(=O)[C@@H](NC(=O)CNC(=O)[C@H](CCC(N)=O)NC(=O)C(C)(C)NC(=O)[C@@H](N)Cc1c[nH]cn1)[C@@H](C)O)[C@@H](C)O)C(=O)N[C@@H](CC(=O)O)C(=O)N[C@@H](C)C(=O)N[C@@H](CCCNC(=N)N)C(=O)N[C@@H](C)C(=O)N[C@@H](C)C(=O)N[C@@H](CCC(N)=O)C(=O)N[C@@H](CCCCNC(=O)COCCOCCNC(=O)COCCOCCNC(=O)CC[C@H](NC(=O)CCCCCCCCCCCCCCC(=O)O)C(=O)O)C(=O)N[C@@H](Cc1ccccc1)C(=O)N[C@H](C(=O)N[C@@H](CCC(N)=O)C(=O)N[C@@H](Cc1c[nH]c2ccccc12)C(=O)N[C@@H](CC(C)C)C(=O)N[C@@H](CCS(C)(=O)=O)C(=O)N[C@@H](CCC(=O)O)C(=O)N[C@H](C(N)=O)[C@@H](C)O)C(C)C [TP825] (H-H[Aib]QGTFTSDYSKYLDARAAQK([AEEA-AEEA-γGlu-C16 diacid])FVQWL[Met(O2)]ET-NH2; N-terminus assumed) | – | < 5 | 2.0 | < 5 | –
2 | CC(C)C[C@H](NC(=O)[C@H](Cc1ccc(O)cc1)NC(=O)[C@H](CCCCN)NC(=O)[C@H](CO)NC(=O)[C@H](Cc1ccc(O)cc1)NC(=O)[C@H](CC(=O)O)NC(=O)[C@H](CO)NC(=O)[C@@H](NC(=O)[C@H](Cc1ccccc1)NC(=O)[C@@H](NC(=O)CNC(=O)[C@H](CCC(N)=O)NC(=O)C(C)(C)NC(=O)[C@@H](N)Cc1c[nH]cn1)[C@@H](C)O)[C@@H](C)O)C(=O)N[C@@H](CC(=O)O)C(=O)N[C@@H](C)C(=O)N[C@@H](CCCNC(=N)N)C(=O)N[C@@H](C)C(=O)N[C@@H](C)C(=O)N[C@@H](CCC(N)=O)C(=O)N[C@@H](CC(=O)O)C(=O)N[C@@H](Cc1ccccc1)C(=O)N[C@H](C(=O)N[C@@H](CCCCNC(=O)COCCOCCNC(=O)COCCOCCNC(=O)COCCOCCNC(=O)CC[C@H](NC(=O)CCCCCCCCCCCCCCCCC(=O)O)C(=O)O)C(=O)N[C@@H](Cc1c[nH]c2ccccc12)C(=O)N[C@@H](CC(C)C)C(=O)N[C@@H](CCS(C)(=O)=O)C(=O)N[C@@H](CC(=O)O)C(=O)N[C@H](C(N)=O)[C@@H](C)O)C(C)C [TP680] (H-H[Aib]QGTFTSDYSKYLDARAAQDFVK([AEEA-AEEA-AEEA-γGlu-C18 diacid])WL[Met(O2)]DT-NH2; N-terminus assumed) | 0.19 | < 5 | 3.0 | < 5 | –
3 | CC(C)C[C@H](NC(=O)[C@H](Cc1c[nH]c2ccccc12)NC(=O)[C@H](CCCCNC(=O)COCCOCCNC(=O)COCCOCCNC(=O)CC[C@H](NC(=O)CCCCCCCCCCCCCCCCCCC(=O)O)C(=O)O)NC(=O)[C@@H](NC(=O)[C@H](Cc1ccccc1)NC(=O)[C@H](CC(=O)O)NC(=O)[C@H](CCC(N)=O)NC(=O)[C@H](C)NC(=O)[C@H](C)NC(=O)[C@H](CCCNC(=N)N)NC(=O)C(C)(C)NC(=O)[C@H](CC(=O)O)NC(=O)[C@H](CC(C)C)NC(=O)[C@H](Cc1ccc(O)cc1)NC(=O)[C@H](CCCCN)NC(=O)[C@H](CO)NC(=O)[C@H](Cc1ccc(O)cc1)NC(=O)[C@H](CC(=O)O)NC(=O)[C@H](CO)NC(=O)[C@@H](NC(=O)[C@H](Cc1ccccc1)NC(=O)[C@@H](NC(=O)CNC(=O)[C@H](CCC(N)=O)NC(=O)C(C)(C)NC(=O)[C@@H](N)Cc1c[nH]cn1)[C@@H](C)O)[C@@H](C)O)C(C)C)C(=O)N[C@@H](CCS(C)(=O)=O)C(=O)N[C@@H](CC(=O)O)C(=O)N[C@H](C(N)=O)[C@@H](C)O [TP576] (H-H[Aib]QGTFTSDYSKYLD[Aib]RAAQDFVK([AEEA-AEEA-γGlu-C20 diacid])WL[Met(O2)]DT-NH2; N-terminus assumed) | – | < 5 | 0.8 | < 5 | 1.45
4 | CC(C)C[C@H](NC(=O)[C@H](Cc1ccc(O)cc1)NC(=O)[C@H](CCCCN)NC(=O)[C@H](CO)NC(=O)[C@H](Cc1ccc(O)cc1)NC(=O)[C@H](CC(=O)O)NC(=O)[C@H](CO)NC(=O)[C@@H](NC(=O)[C@H](Cc1ccccc1)NC(=O)[C@@H](NC(=O)CNC(=O)[C@H](CCC(N)=O)NC(=O)C(C)(C)NC(=O)[C@@H](N)Cc1c[nH]cn1)[C@@H](C)O)[C@@H](C)O)C(=O)N[C@@H](CC(=O)O)C(=O)N[C@@H](C)C(=O)N[C@@H](CCCNC(=N)N)C(=O)N[C@@H](C)C(=O)N[C@@H](C)C(=O)N[C@@H](CCCCNC(=O)COCCOCCNC(=O)COCCOCCNC(=O)CC[C@H](NC(=O)CCCCCCCCCCCCCCCCCCC(=O)O)C(=O)O)C(=O)N[C@@H](CC(=O)O)C(=O)N[C@@](C)(Cc1ccccc1)C(=O)N[C@H](C(=O)N[C@@H](CCC(N)=O)C(=O)N[C@@H](Cc1c[nH]c2ccccc12)C(=O)N[C@@H](CC(C)C)C(=O)N[C@@H](CCS(C)(=O)=O)C(=O)N[C@@H](CC(=O)O)C(=O)N[C@H](C(N)=O)[C@@H](C)O)C(C)C [TP590] (H-H[Aib]QGTFTSDYSKYLDARAAK([AEEA-AEEA-γGlu-C20 diacid])D[αMeF]VQWL[Met(O2)]DT-NH2) | – | < 5 | 3.1 | < 5 | –

Results, then the molecule that gave them:

Row | EC50 (human GLP1R; [1]) [nM] | EC50 (human GLP1R; [2]) [nM] | hGCGR/hGLP1R (hTone) (human GCGR) | EC50 (human GCGR; [3]) [nM] | EC50 (human GCGR; [4]) [nM] | Compound
5 | 0.41 | < 5 | >4.1 | < 5 | – | CC(C)C[C@H](NC(=O)[C@H](Cc1ccc(O)cc1)NC(=O)[C@H](CCCCN)NC(=O)[C@H](CO)NC(=O)[C@H](Cc1ccc(O)cc1)NC(=O)[C@H](CC(=O)O)NC(=O)[C@H](CO)NC(=O)[C@@H](NC(=O)[C@H](Cc1ccccc1)NC(=O)[C@@H](NC(=O)CNC(=O)[C@H](CCC(N)=O)NC(=O)C(C)(C)NC(=O)[C@@H](N)Cc1c[nH]cn1)[C@@H](C)O)[C@@H](C)O)C(=O)N[C@@H](CC(=O)O)C(=O)N[C@@H](CCC(=O)O)C(=O)N[C@@H](CCCNC(=N)N)C(=O)N[C@@H](C)C(=O)N[C@@H](C)C(=O)N[C@@H](Cc1ccc(CNC(=O)COCCOCCNC(=O)COCCOCCNC(=O)CC[C@H](NC(=O)CCCCCCCCCCCCCCCCC(=O)O)C(=O)O)cc1)C(=O)N[C@@H](CC(=O)O)C(=O)N[C@@H](Cc1ccccc1)C(=O)N[C@H](C(=O)N[C@@H](CCC(N)=O)C(=O)N[C@@H](Cc1c[nH]c2ccccc12)C(=O)N[C@@H](CC(C)C)C(=O)N[C@@H](CC(C)C)C(=O)N[C@@H](CCCCN)C(=O)N[C@H](C(N)=O)[C@@H](C)O)C(C)C [TP587] (H-H[Aib]QGTFTSDYSKYLDERAA[Phe(4-CH2NH2)]([AEEA-AEEA-γGlu-C18 diacid])DFVQWLLKT-NH2; N-terminus assumed)
6 | – | < 5 | 0.7 | < 5 | 0.35 | CC(C)C[C@H](NC(=O)[C@H](Cc1ccc(O)cc1)NC(=O)[C@H](CCCCN)NC(=O)[C@H](CO)NC(=O)[C@H](Cc1ccc(O)cc1)NC(=O)[C@H](CC(=O)O)NC(=O)[C@H](CO)NC(=O)[C@@H](NC(=O)[C@H](Cc1ccccc1)NC(=O)[C@@H](NC(=O)CNC(=O)[C@H](CCC(N)=O)NC(=O)C(C)(C)NC(=O)[C@@H](N)Cc1c[nH]cn1)[C@@H](C)O)[C@@H](C)O)C(=O)N[C@@H](CC(=O)O)C(=O)N[C@@H](C)C(=O)N[C@@H](CCCNC(=N)N)C(=O)N[C@@H](C)C(=O)N[C@@H](C)C(=O)N[C@@H](CCCCNC(=O)COCCOCCNC(=O)COCCOCCNC(=O)CC[C@H](NC(=O)CCCCCCCCCCCCCCCCC(=O)O)C(=O)O)C(=O)N[C@@H](CC(=O)O)C(=O)N[C@@H](Cc1ccccc1)C(=O)N[C@H](C(=O)N[C@@H](CCC(N)=O)C(=O)N[C@@H](Cc1c[nH]c2ccccc12)C(=O)N[C@@H](CC(C)C)C(=O)N[C@@H](CCS(C)(=O)=O)C(=O)N[C@@H](CCC(=O)O)C(=O)N[C@H](C(N)=O)[C@@H](C)O)C(C)C [TP672] (H-H[Aib]QGTFTSDYSKYLDARAAK([AEEA-AEEA-γGlu-C18 diacid])DFVQWL[Met(O2)]ET-NH2; N-terminus assumed)
7 | – | < 5 | – | < 5 | – | CC(C)C[C@H](NC(=O)[C@H](Cc1ccc(O)cc1)NC(=O)[C@H](CCCCN)NC(=O)[C@H](CO)NC(=O)[C@H](Cc1ccc(O)cc1)NC(=O)[C@H](CC(=O)O)NC(=O)[C@H](CO)NC(=O)[C@@H](NC(=O)[C@H](Cc1ccccc1)NC(=O)[C@@H](NC(=O)CNC(=O)[C@H](CCC(N)=O)NC(=O)C(C)(C)NC(=O)[C@@H](N)Cc1c[nH]cn1)[C@@H](C)O)[C@@H](C)O)C(=O)N[C@@H](CC(=O)O)C(=O)N[C@@H](C)C(=O)N[C@@H](CCCNC(=N)N)C(=O)N[C@@H](C)C(=O)N[C@@H](C)C(=O)N[C@@H](CCC(N)=O)C(=O)N[C@@H](CC(=O)O)C(=O)N[C@@H](Cc1ccccc1)C(=O)N[C@H](C(=O)N[C@@H](CCC(N)=O)C(=O)N[C@@H](Cc1c[nH]c2ccccc12)C(=O)N[C@@H](CC(C)C)C(=O)N[C@@H](CCS(C)(=O)=O)C(=O)N[C@@H](Cc1ccc(CNC(=O)COCCOCCNC(=O)COCCOCCNC(=O)CC[C@H](NC(=O)CCCCCCCCCCCCCCCCCCC(=O)O)C(=O)O)cc1)C(=O)N[C@H](C(N)=O)[C@@H](C)O)C(C)C [TP605] (H-H[Aib]QGTFTSDYSKYLDARAAQDFVQWL[Met(O2)][Phe(4-CH2NH2)]([AEEA-AEEA-γGlu-C20 diacid])T-NH2)
